# Target: recombinant HCV NS3/4A GT1b wt (Hepatitis C virus genotype 1b, UniProt Q9WMX2)
# Assay: HCV NS3/4A enzymatic inhibition assay, wild type
# Assay type: biochemical
# Conditions: compounds at 13.08, 14.68, 4.60 μM of 1, 12, 22; 40 nM enzyme
# recombinant HCV NS3/4A GT1b wt, sequence (Q9WMX2 1027-1657 limits assumed): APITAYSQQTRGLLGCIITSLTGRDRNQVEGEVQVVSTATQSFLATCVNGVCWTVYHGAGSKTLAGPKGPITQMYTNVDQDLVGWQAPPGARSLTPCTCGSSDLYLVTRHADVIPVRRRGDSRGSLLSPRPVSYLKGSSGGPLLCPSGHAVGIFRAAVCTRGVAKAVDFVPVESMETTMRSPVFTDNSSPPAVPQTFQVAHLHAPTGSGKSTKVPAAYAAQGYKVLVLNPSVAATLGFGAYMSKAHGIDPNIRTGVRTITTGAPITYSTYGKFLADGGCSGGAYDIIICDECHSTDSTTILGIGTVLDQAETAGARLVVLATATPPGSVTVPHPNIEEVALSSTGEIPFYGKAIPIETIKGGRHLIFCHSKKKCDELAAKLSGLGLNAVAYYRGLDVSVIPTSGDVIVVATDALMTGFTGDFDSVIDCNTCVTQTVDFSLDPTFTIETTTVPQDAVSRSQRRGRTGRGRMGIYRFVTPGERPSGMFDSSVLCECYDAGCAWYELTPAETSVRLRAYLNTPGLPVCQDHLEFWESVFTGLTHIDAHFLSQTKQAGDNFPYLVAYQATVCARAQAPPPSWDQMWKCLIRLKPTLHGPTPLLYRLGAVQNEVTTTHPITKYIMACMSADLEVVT
# recombinant HCV NS3/4A GT1b wt, sequence (Q9WMX2 1658-1711 partner limits assumed): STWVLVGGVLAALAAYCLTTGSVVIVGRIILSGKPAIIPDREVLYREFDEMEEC
substance,measurement,value
3-(1H-Indol-3-yl)-2-(3-(4-isopropylphenyl)ureido)-N-(3-(piperidin-1-yl)propyl)propenamide [Compound 22],Decrease of HCV NS3/4A activity,about 50%

# Source: article PMC6796237 (ACS Omega, 2019)
